Consider two compounds from ChEMBL document CHEMBL4819135, “Design, synthesis and anti-HIV evaluation of novel 5-substituted diarylpyrimidine derivatives as potent HIV-1 NNRTIs” (Bioorg Med Chem, 2021).

A value given as a limit tells only on which side of the number the result lay.

Series [1] has as its system Human immunodeficiency virus 1. In words: Antiviral activity against HIV-1 IIIB. The series is classed as functional, organism-based. The settings on record: Human immunodeficiency virus 1, IIIB.
Series [2] is described as follows: Antiviral activity against HIV-2 ROD infected in human MT4 cells assessed as protection against virus-induced cytotoxicity incubated for 5 days by MTT assay. The series is classed as functional, cell-based. The settings on record: HIV-2, ISOLATE ROD, MT4, 120 h. Background: Formazan colour is commonly taken as a measure of viable cells.
In series [3] the test system is Human immunodeficiency virus 1. In words: Antiviral activity against HIV-1 IIIB harboring RT Y188L mutant infected in human MT4 cells assessed as protection against virus-induced cytotoxicity incubated for 5 days by MTT assay. The series is classed as functional, organism-based. The settings on record: Human immunodeficiency virus 1, IIIB, MT4, 120 h.
The subject of series [4] is Human immunodeficiency virus 1. In words: Antiviral activity against HIV-1 IIIB harboring RT L100I mutant infected in human MT4 cells assessed as protection against virus-induced cytotoxicity incubated for 5 days by MTT assay. The class given is functional, organism-based. The settings on record: Human immunodeficiency virus 1, IIIB, MT4, 120 h.
Series [5] deals with Human immunodeficiency virus type 1 reverse transcriptase (Human immunodeficiency virus 1, UniProt Q72547). Briefly: Inhibition of wild type HIV-1 reverse transcriptase assessed as reduction in biotin-dUTP incorporation in presence of template-primer incubated for 60 mins followed by transferring to streptavidin-coated plate and further incubation for 60 mins by ELISA. On the technique in general: ELISA stands for enzyme-linked immunosorbent assay.

The subject of series [6] is Human immunodeficiency virus 1. In words: Potency index, ratio of Etravirine EC50 to test compound EC50 for antiviral activity against HIV-1 IIIB harboring RT E138K mutant infected in human MT4 cells by MTT assay. The series is classed as functional.
Series [7] has as its system Human immunodeficiency virus 1. Briefly: Antiviral activity against HIV-1 RES056 infected in human MT4 cells assessed as protection against virus-induced cytotoxicity incubated for 5 days by MTT assay. The class given is functional, organism-based. The settings on record: Human immunodeficiency virus 1, RES056, MT4, 120 h.
In series [8] the test system is Human immunodeficiency virus 1. In words: Antiviral activity against HIV-1 IIIB harboring RT K103N mutant infected in human MT4 cells assessed as protection against virus-induced cytotoxicity incubated for 5 days by MTT assay. The class given is functional, organism-based. The settings on record: Human immunodeficiency virus 1, IIIB, MT4, 120 h.
The test system of series [9] is Human immunodeficiency virus 1. Briefly: Potency index, ratio of Etravirine EC50 to test compound EC50 for antiviral activity against HIV-1 IIIB infected in human MT4 cells by MTT assay. The class given is functional.
In series [10] the test system is Human immunodeficiency virus 1. Briefly: Antiviral activity against HIV-1 IIIB harboring RT F227L/V106A mutant infected in human MT4 cells assessed as protection against virus-induced cytotoxicity incubated for 5 days by MTT assay. The series is classed as functional, organism-based. The note with it: Human immunodeficiency virus 1, IIIB, MT4, 120 h.
Series [11] concerns Human immunodeficiency virus 1. In words: Antiviral activity against HIV-1 IIIB infected in human MT4 cells assessed as protection against virus-induced cytotoxicity after 5 days by MTT assay. The note with it: Human immunodeficiency virus 1, IIIB, MT4, 120 h. The class given is functional, organism-based.
Series [12] in a line: Cytotoxicity against human MT4 cells assessed as reduction in cell viability after 5 days by MTT assay. The class given is cell-based. The settings on record: time 5 day.
For series [13], the system named is Human immunodeficiency virus 1. Briefly: Antiviral activity against HIV-1 IIIB harboring RT E138K mutant infected in human MT4 cells assessed as protection against virus-induced cytotoxicity incubated for 5 days by MTT assay. The series is classed as functional, organism-based. The settings on record: Human immunodeficiency virus 1, IIIB, MT4, 120 h.
For series [14], the system named is Human immunodeficiency virus 1. In words: Antiviral activity against HIV-1 IIIB harboring RT Y181C mutant infected in human MT4 cells assessed as protection against virus-induced cytotoxicity incubated for 5 days by MTT assay. The series is classed as functional, organism-based. The note with it: Human immunodeficiency virus 1, IIIB, MT4, 120 h.

Take `Cc1cc(C#N)cc(C)c1Oc1nc(Nc2ccc(C#N)cc2)nc2ccsc12`: it took 1.6 nM to reach a half-maximal effect in series [1] (EC50).
Regarding `Cc1cc(C#N)cc(C)c1Oc1nc(Nc2ccc(C#N)cc2)ncc1-c1ccncc1`, the EC50 in series [2] is > 28000 nM; in series [3], 30.9 nM; in [4] it was 28.3 nM; in series [7], 718 nM; in series [8], 4.2 nM; in series [10], 41.3 nM. In addition, the results for the 50% effective concentration (EC50) in series [11], in series [13] and in [14] were 2.5 nM, 5.9 nM and 24.1 nM, respectively. Further, in series [5], the concentration for half-maximal inhibition (IC50) came to 570 nM. For the same compound, the “Ratio EC50” value in [6] is given as 1.4; in [9], 1.2. In addition, the 50% cytotoxic concentration (CC50) at 120 h in series [12] came to 28000 nM.

Broadly, the EC50 is the midpoint of the concentration-response curve. Usually IC50 stands for the concentration needed to halve the response being measured. Broadly, the CC50 is the concentration that lowers cell viability or growth by half.
